Test results reported in patent US9237744B2, “Preservative solution for cells, tissues and organs containing rare sugar and preservative method thereof” (NATIONAL UNIVERSITY CORPORATION KAGAWA UNIVERSITY, priority 2004, dated 2016).

Key:
[1] = system: NIH3T3 (mouse fibroblast); assay: Cell growth after thawing of freeze-preserved cells, MTT assay (Example 1); assay type: cell-based; conditions: same experiment as with HFB
Experimental: (§1) 1. Cells used: Hela (human cervical cancer), OVCAR-3 (human ovarian cancer), HuH-7 (human liver cancer), HaCaT (human skin keratinocyte), HFB (human fibroblast) and NIH3T3 (mouse fibroblast). Saccharides D-allose and the like were added to culture medium, Cell Banker (commercially available preservative solution) and DMSO at concentrations of 25 mM and 50 mM. Monosaccharides such as D-glucose, D-fructose, D-mannose and D-galactose which are present in nature in large quantities and D-allose, D-psicose, D-altrose, allitol, D-talitol and L-sorbose as rare sugars were used. Further, trehalose as disaccharide was used. The cells were preserved for 24 hours by being frozen at −80° C. 2) Cell growth: One day later, the cells were thawed, and 0.25˜2×10^4 cells/well were spread on 96-well plate with 0.1 mL medium. After a prescribed period of time, the cell growth was measured by MTT assay.

[2] = system: HFB (human fibroblast); assay: as above; assay type: cell-based; conditions: culture medium plus sugar, in comparison with other cases (FIG. 2)
Experimental: as §1

O=C[C@H](O)[C@H](O)[C@H](O)[C@H](O)CO [D-allose]
growth rate of cells after thawing [1]: the same results were obtained | growth rate of cells after thawing [2]: growth rate was high
